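Where inhibition never reached the appropriate level, the endpoint shown equals the highest concentration tested. Otherwise, values were interpolated linearly from a five-concentration, 48-hour dose response in 96-well plates. The concentration for 50% growth inhibition is given as GI50. At the TGI there is no net growth.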
Key:
Assay in all cases: DTP human tumour cell line panel, 48 h
LOX IMVI melanoma = system: LOX IMVI melanoma
OVCAR-8 ovarian = system: OVCAR-8 ovarian
SW-620 colon = system: SW-620 colon
NCI-H23 lung = system: NCI-H23 lung
SR leukemia = system: SR leukemia
NCI-H226 lung = system: NCI-H226 lung
RPMI-8226 leukemia = system: RPMI-8226 leukemia
SF-268 CNS = system: SF-268 CNS
RXF 393 renal = system: RXF 393 renal
T-47D breast = system: T-47D breast

NC(=O)c1c2c(cc3c(=O)c4ccccc4[nH]c13)CCCC2
TGI (LOX IMVI melanoma): > 100 µM | TGI (OVCAR-8 ovarian): > 100 µM | TGI (SW-620 colon): > 100 µM | TGI (NCI-H23 lung): > 100 µM | TGI (SR leukemia): > 100 µM | TGI (NCI-H226 lung): > 100 µM | TGI (RPMI-8226 leukemia): > 78.7 µM | TGI (SF-268 CNS): > 100 µM | TGI (RXF 393 renal): > 100 µM

N=C(N)c1ccc(-c2ccc(-c3ccc(F)cc3)o2)o1
GI50 (SW-620 colon): 0.943 µM | TGI (SW-620 colon): 2.38 µM | GI50 (NCI-H23 lung): 1.93 µM | TGI (NCI-H23 lung): 4.88 µM | GI50 (NCI-H226 lung): 2.82 µM | TGI (NCI-H226 lung): 9.71 µM | GI50 (RPMI-8226 leukemia): 2.48 µM | TGI (RPMI-8226 leukemia): 6.1 µM | GI50 (SF-268 CNS): 1.92 µM | TGI (SF-268 CNS): 4.67 µM | GI50 (RXF 393 renal): 1.6 µM | TGI (RXF 393 renal): 3.4 µM

CC1CC2(CCC1OCc1ccccc1)OCCO2 (stereo not given)
TGI (LOX IMVI melanoma): > 100 µM | TGI (OVCAR-8 ovarian): > 100 µM | TGI (SW-620 colon): > 100 µM | TGI (NCI-H23 lung): > 100 µM | TGI (RPMI-8226 leukemia): > 100 µM | TGI (RXF 393 renal): > 100 µM

COc1ccc(C(O)/C(=C/n2ccnc2)c2ccccc2)cc1OC (stereo not given)
TGI (LOX IMVI melanoma): > 100 µM | TGI (OVCAR-8 ovarian): > 100 µM | TGI (SW-620 colon): > 100 µM | TGI (NCI-H23 lung): > 100 µM | TGI (SR leukemia): > 100 µM | TGI (NCI-H226 lung): > 100 µM | TGI (RPMI-8226 leukemia): > 100 µM | TGI (SF-268 CNS): > 100 µM | TGI (RXF 393 renal): > 100 µM

COc1ccc(-n2c3c(c4c(CN(C)C)c(O)c(C)cc42)CCc2ccccc2C3=O)cc1
GI50 (LOX IMVI melanoma): 17.1 µM | TGI (LOX IMVI melanoma): 45.2 µM | GI50 (OVCAR-8 ovarian): 31.6 µM | TGI (OVCAR-8 ovarian): > 100 µM | GI50 (SW-620 colon): 32.5 µM | TGI (SW-620 colon): > 100 µM | GI50 (NCI-H23 lung): 14 µM | TGI (NCI-H23 lung): 69 µM | GI50 (NCI-H226 lung): 28.3 µM | TGI (NCI-H226 lung): > 100 µM | GI50 (RPMI-8226 leukemia): 15.5 µM | TGI (RPMI-8226 leukemia): 47 µM | GI50 (SF-268 CNS): 61.9 µM | TGI (SF-268 CNS): > 100 µM | GI50 (T-47D breast): > 100 µM | TGI (T-47D breast): > 100 µM | GI50 (RXF 393 renal): 16.1 µM | TGI (RXF 393 renal): 75.6 µM

O=C1OCC2=C1C(c1cccc(C(F)(F)F)c1)c1cc3c(cc1N2CCO)CCC3 (stereo not given)
GI50 (LOX IMVI melanoma): 0.271 µM | TGI (LOX IMVI melanoma): 6.77 µM | GI50 (OVCAR-8 ovarian): 0.203 µM | TGI (OVCAR-8 ovarian): 8.31 µM | GI50 (SW-620 colon): 0.189 µM | TGI (SW-620 colon): 9.16 µM | GI50 (NCI-H23 lung): 0.321 µM | TGI (NCI-H23 lung): 14.5 µM | GI50 (NCI-H226 lung): 1 µM | TGI (NCI-H226 lung): 9.43 µM | GI50 (RPMI-8226 leukemia): 0.239 µM | TGI (RPMI-8226 leukemia): 12.8 µM | GI50 (SF-268 CNS): 0.266 µM | TGI (SF-268 CNS): 7.15 µM | GI50 (RXF 393 renal): 0.145 µM | TGI (RXF 393 renal): 8.38 µM

Cc1ccc2[nH]c(C(=O)NN3C(=O)C(C)SC34CCCCC4C)c(-c3ccccc3)c2c1 (stereo not given)
GI50 (LOX IMVI melanoma): 18.9 µM | TGI (LOX IMVI melanoma): 35.4 µM | GI50 (OVCAR-8 ovarian): 20.9 µM | TGI (OVCAR-8 ovarian): 43.2 µM | GI50 (SW-620 colon): 19.8 µM | TGI (SW-620 colon): 53.2 µM | GI50 (NCI-H23 lung): 24.7 µM | TGI (NCI-H23 lung): 53.5 µM | GI50 (NCI-H226 lung): 17.4 µM | TGI (NCI-H226 lung): 34.2 µM | GI50 (RPMI-8226 leukemia): 21.4 µM | TGI (RPMI-8226 leukemia): 64 µM | GI50 (SF-268 CNS): 18.8 µM | TGI (SF-268 CNS): 43.6 µM | GI50 (T-47D breast): 24.6 µM | TGI (T-47D breast): 78.9 µM | GI50 (RXF 393 renal): 0.415 µM | TGI (RXF 393 renal): 21.1 µM

COc1cc2c3c(n(C)c(=O)c2cc1OC)-c1cc2c(cc1/C3=C/[C@H](N)CCCCN)OCO2
GI50 (LOX IMVI melanoma): 0.63 µM | TGI (LOX IMVI melanoma): 2.37 µM | GI50 (OVCAR-8 ovarian): 2.27 µM | TGI (OVCAR-8 ovarian): 23.4 µM | GI50 (SW-620 colon): 0.595 µM | TGI (SW-620 colon): > 37.9 µM | GI50 (NCI-H23 lung): 2.52 µM | TGI (NCI-H23 lung): 21.9 µM | GI50 (SR leukemia): 0.123 µM | TGI (SR leukemia): > 100 µM | GI50 (RPMI-8226 leukemia): 1.59 µM | TGI (RPMI-8226 leukemia): > 61.5 µM | GI50 (SF-268 CNS): 0.315 µM | TGI (SF-268 CNS): 3.97 µM | GI50 (T-47D breast): 4.85 µM | TGI (T-47D breast): > 100 µM | GI50 (RXF 393 renal): 3.45 µM | TGI (RXF 393 renal): 12.7 µM

C=CCN(CC=C)CC(C(C)=O)C(c1ccccc1)c1c(O)c2ccccc2oc1=O (stereo not given)
TGI (LOX IMVI melanoma): > 100 µM | TGI (OVCAR-8 ovarian): > 100 µM | TGI (SW-620 colon): > 100 µM | TGI (NCI-H23 lung): > 100 µM | TGI (SR leukemia): > 100 µM | TGI (NCI-H226 lung): > 100 µM | TGI (RPMI-8226 leukemia): > 100 µM | TGI (SF-268 CNS): > 100 µM | TGI (RXF 393 renal): > 100 µM

From PubChem BioAssay (NCI)
